Legend:
[1] = tested on: IRE1α; assay: Immunoblot of IRE1α and phospho-IRE1α in MDSC; format: cell-based, mice
Description: (§1) Equal protein amounts of total and nuclear cell lysates were electrophoresed in 8 or 10% Tris-Glycine gels (Novex-Invitrogen), transferred to PVDF membranes by iBlot™ Gel Transfer Device (ThermoFisher), and blotted with the corresponding primary and secondary antibodies described in Key Resources Table. For nuclear fraction isolation, cells were lysed using NE-PER Nuclear and Cytoplasmic extraction kit (ThermoFisher). Membrane-bound immune complexes were detected by ChemiDoc™ Imaging System (Bio-Rad, #17001401).

[2] = tested on: tumor-MDSC; assay: Ex vivo suppression assay: tumor-MDSC co-cultured with primed CFSE-labeled T cells; format: cell-based, mice
Description: CD3^+ T cells were enriched using mouse or human T cell negative selection kits (MagniSort, Invitrogen) from the spleen and lymph nodes of C57BL/6 mice; or from purchased human buffy-coat units (One-Blood, Tampa, Fla.). Purity ranged between 95% and 99% as tested by flow cytometry. For antigen-specific priming studies, CD8^+ T cells were enriched using negative selection kits from the spleens of OT-I mice previously activated with OVA257-264 (SIINFEKL) for 48 hours. Tumor-MDSC were isolated from cellular suspensions of digested tumors followed by positive selection (MojoSort Streptavidin Nanobeads, Biolegend) using anti-Gr1 (Clone RB6-8C5, eBioscience) or anti-CD11b-biotinylated antibodies (Clone M1/70, StemCell Technologies, Vancouver). Also, M-MDSC (CD11b^+Gr1^+Ly6G^lowLy6C^high), PMN-MDSC (CD11b^+Gr1^+Ly6G^+Ly6C^low), macrophages (CD11b^+Gr1^negF4/80^+CD11c^neg), and myeloid DCs (CD11b^+Gr1^negF4/80^negCD11c^+) were sorted from tumors in a FACSAriaII (BD Biosciences).
(§2) Murine BM-MDSC (ratio 1:1/8) or tumor-MDSC (ratio 1:1/4) were co-cultured with negatively selected CD3^+ T cells in a 96 well plate bound α-CD3 and α-CD28 (1 μg/ml each, eBioscience) for 3 days. T cell proliferation was assessed with Carboxyfluorescein succinimidyl ester (CFSE) or Cell-trace violet (Invitrogen) dye dilution detected by flow cytometry. For human studies, MDSC were co-cultured with enriched CD3^+ T cells activated with soluble α-CD3 (1 μg/ml, clone OKT3) and α-CD28 (0.5 μg/ml, clone L293) for 3 days in a 96 well plate bound with goat anti-mouse IgG (10 μg/ml). Results are expressed as percentage of proliferating T cells, determined by the dilution of fluorescence compared with non-stimulated T cells.

[3] = tested on: tumor-MDSC from Pan02-OVA-ZsGreen tumors; assay: Cross-presentation by tumor-MDSC from Pan02-OVA-ZsGreen tumors; format: cell-based; conditions: TUDCA-treated mice bearing Pan02-OVA-ZsGreen tumors
Description: For antigen loading experiments, MDSC were sorted from LLC tumors and then pulsed with 1 μg/ml complete ovalbumin (OVA). After 16 hours, cells were washed twice and 2.5×10^4 MDSC co-cultured with 1×10^5 CFSE-labeled naïve CD8^+ T cells from spleens of OT-I mice (ratio 0.25:1). Positive controls included co-cultures of OT-I T cells with GM-CSF plus IL-4-derived BM-DCs loaded with 1 μg/ml complete OVA. For TME cross-priming assays, 1.25×10^4 MDSC from Pan02-Ova-ZsGreen tumors were co-cultured with 5×10^4 naïve CD8^+ T cells (1/4:1) from spleens of OT-I mice and labelled with Cell-trace violet. Positive control wells included OT-I T cells co-cultured with GM-CSF plus IL-4-derived BM-DCs loaded with 1 μg/ml OVA257-264 peptide. T cell proliferation was measured after 3 days of co-culture.

[4] = tested on: LLC tumors; assay: s.c. LLC tumor model in mice; format: in vivo
[5] = tested on: PERK; assay: Immunoblot of PERK and phospho-PERK in MDSC; format: cell-based, mice
Description: as §1

[6] = tested on: human BM-MDSC; assay: In vitro suppression assay with human BM-MDSC; format: cell-based
Description: (§3) Mouse BM-MDSC were generated after culturing BM precursors with GM-CSF and G-CSF (20 ng/ml each) for 4 days. In vitro generated MDSC were treated with either LLC tumor explant supernatants (TES, since day 0) or Thaps (200 nM, for the last 24 hours of culture). Human BM-MDSC were developed after culturing BM or peripheral blood precursors from healthy donors with GM-CSF and IL-6 (10 ng/ml each) for a period of 6 days (Thevenot et al., 2014). To induce UPR activation, MDSC were treated with either supernatants from renal cell carcinoma cells 786-0 (hTES) for 6 days (Rodriguez et al., 2009) or Thaps during the last 24 hours before collection (200 nM). In some experiments, MDSC were pre-incubated for 3 hours with Resveratrol (100 μM, Sigma-Aldrich), D,L-Sulphoraphane (20 μM), AMG-44 (5 μM), or TUDCA (500 nM) before treating with Thaps.
as §2, with “For human studies, MDSC were co-cultured with enriched CD3^+ T cells activated with soluble α-CD3 (1 μg/ml, clone OKT3) and α-CD28 (0.5 μg/ml, clone L293) for 3 days in a 96 well plate bound with goat anti-mouse IgG (10 μg/ml).” left out

[7] = tested on: murine BM-MDSC; assay: In vitro suppression assay with murine BM-MDSC; format: cell-based, mouse; conditions: for potential of Thaps-treated Eif2ak3^KO-Tek BM-MDSC to impair T cell proliferation: 3 hours pre-treatment, Resveratrol 100 μM or D,L-Sulphoraphane 20 μM
Description: as §3, §2

[8] = tested on: CD8+ TILs; assay: Flow cytometry of tumor-infiltrating CD8+ T cells from treated mice; format: in vivo
Description: All analysis was performed using FlowJo version 11 software.

[9] = tested on: Arginase I; assay: Immunoblot of Arginase I in tumor-MDSC; format: cell-based; conditions: mice treated with TUDCA vs vehicle
Description: as §1

[10] = tested on: B16 tumors; assay: s.c. B16 melanoma tumor model in mice; format: in vivo
[11] = tested on: Ifnβ1 mRNA; assay: Quantitative PCR of Ifnβ1 mRNA in MDSC; format: cell-based; conditions: mice treated with SFRN vs untreated PERK-null mice
Description: Total RNA was isolated from MDSC using TRIzol (Life Technologies). Reverse transcription was performed using Verso cDNA Synthesis Kit (Thermo Scientific). Quantitative PCR reactions were prepared by using Bio-Rad SYBR green master mix and performed on an Applied Biosystems thermocycler (7900 HT) using primers described in Key Resources Table

[12] = tested on: tumor-MDSC; conditions: tumor-bearing Eif2ak3^KO-Lyz2 mice treated with SFRN vs untreated or Eif2ak3^Flox
Description: Oxygen consumption rate (OCR) through mitochondrial stress test and extracellular acidification rate (ECAR) by glycolysis stress profile were measured using a XF96 extracellular flux analyzer (Seahorse Bioscience). MDSC were plated onto CellTak pre-coated wells (1×10^5 cells/well in triplicate), and subjected to mitochondrial stress and glycolysis stress protocols using specific non-buffered XF base mediums. For OCR, cells were analyzed under basal conditions and in response to 2 μM oligomycin, 2 μM fluorocarbonyl-cyanide-phenylhydrazone (FCCP), and 0.5 μM rotenone. For ECAR, cells were plated in XF media lacking glucose and monitored under basal conditions and in response to 10 mM glucose, 10 μM oligomycin, and 100 mM 2-Deoxy-D-glucose (2-DG). Final values were obtained after protein normalization among the conditions.

[13] = tested on: tumor-MDSC; conditions: LLC-bearing mice treated with SFRN
Description: For surface staining, cells were labelled with the appropriate antibodies in the presence of Fc blocker. For intracellular staining, surface-labeled cells were fixed with Cytofix/Cytoperm™ Solution (BD Biosciences), washed in Perm/Wash™ 1× solution, and labelled with intracellular antibodies. Cells were then washed in Perm/Wash™ 1× and PBS. Live vs. dead cell discrimination was performed prior to antibody labeling by Zombie Fixable Viability dye (Biolegend). Ex vivo intracellular staining for IL-12 and TNFα was performed on isolated cells after stimulation for 6 hours with LPS (1 μg/ml, Sigma Aldrich) in the presence of Golgi stop (0.8 μl/ml, BD Biosciences). For IFNγ staining, cells were incubated for 5 hours with phorbol myristate acetate (PMA, 750 ng/mL, Sigma Aldrich) and ionomycin (50 μg/mL, Sigma-Aldrich) in the presence and Golgi stop (0.8 μl/ml). For ER-tracker and Mitotracker staining, cells were probed with 100 nM of ER tracker green or 200 nM of Mitotracker green (Invitrogen) and then stained for surface markers. For Mitochondrial membrane potential, cells were stained with JC-1 flow cytometry assay kit (Cayman chemicals) followed by surface markers staining. ROS were detected by DCFDA (10 μM) or Dihydroethidium (DHE, 10 μM). Data acquisition was performed in a CytoFLEX II (Beckman Coulter) or LSRII (BD Biosciences). All analysis was performed using FlowJo version 11 software.

[14] = Blood glucose and pancreatic islets in B16-bearing mice; format: in vivo; conditions: B16-bearing mice treated for a week; GSK2606414 25 mg/kg or AMG-44 12 mg/kg; day 17
Description: Hematoxylin and Eosin (H&E) stained slides were scanned in an Aperio AT2 whole slide scanner (Leica Biosystems Inc.) equipped with a 20×0.7NA objective lens Images were created at 0.5 micron per pixel resolution and imported into Definiens Tissue Studio software v4.7 (Definiens AG) for analysis. Islets were found using a semi-automated segmentation process. First an automatic segmentation was applied to the image to create contour lines around objects within the image. Objects that contained islets were classified as such and remaining objects were classified as non-islet tissue. Next, adjacent objects of the same classification were merged together to clean up the segmentation. Segmented images were analyzed to provide the total area of islets Immunofluorescence for mouse insulin in pancreas tissue sections was performed as we described (Sultan et al., 2017). Labeled samples were scanned with a Zeiss Imager Z2 Upright FL microscope with a 10× objective lens using the tile scan function. Images were created at a
0.65 micron per pixel resolution and imported into the Definiens Tissue Studio software v4.7 (Definiens AG) for islet detection and analysis. Islets were detected using a semi-automated segmentation process. First, an automatic segmentation was applied to the image to detect the tissue. Then, the software was trained to detect islet vs. non-islet tissue within the image. In order to remove false detected islets caused by background staining, detected islets larger than 150,000 square microns and less than 600 square microns were reclassified to non-islet tissue. Segmented images were then analyzed to provide the fluorescent intensity of islets and total tissue area.

[15] = cited from earlier work
[16] = mice treated with TUDCA vs controls
[17] = LLC, SFRN 25 mg/kg i.p., 3 days per week
[18] = BM-MDSC, Thaps 200 nM, last 24 hours
[19] = LLC-bearing mice, Thaps 100 μg/kg i.p. vs vehicle

C[C@H](CCC(=O)NCCS(=O)(=O)O)[C@H]1CC[C@H]2[C@@H]3[C@@H](O)C[C@@H]4C[C@H](O)CC[C@]4(C)[C@H]3CC[C@]12C [TUDCA, Tauroursodeoxycholic acid]
expression of phospho-IRE1α in tumor-MDSC [1, 16]: lower expression of phospho-PERK and phospho-IRE 1α | ability to block T cell proliferation ([2]; LLC tumor-MDSC pre-treated ex vivo with TUDCA for 24 hours): impaired the ability | ability of tumor-MDSC to block T cell proliferation ([2]; tumor-MDSC (1:1/4) from LLC or B16 bearing mice treated with TUDCA vs vehicle): lower ability to block T cell proliferation | capacity of tumor-MDSC to prime OT-I T cell proliferation [3]: higher capacity to prime OT-I T cell proliferation | expression of SIINFEKL-bound H-2K^b in tumor-MDSC [3]: heightened expression | anti-tumor actions in immunodeficient Rag1^KO mice ([4]; LLC tumors, TUDCA, Rag1^KO vs wild type mice): not found | tumor growth ([4]; established LLC tumors, TUDCA 250 mg/kg daily after day 6 vs vehicle): delayed tumor growth | expression of phospho-PERK in tumor-MDSC [5, 16]: lower expression of phospho-PERK | ability to block T cell proliferation ([6]; human BM-MDSC conditioned with hTES, TUDCA in culture): impaired the ability | ability to block T cell proliferation ([7]; murine BM-MDSC developed after exposing BM-iMC to TES, TUDCA in culture): impaired the ability | expansion of recently activated CD69+ CD44+ CD8+ T cells in tumors ([8]; B16-bearing mice treated with TUDCA): Higher expansion | EGSRNQDWL-H-2D^b-tetramer+ CD8+ T cells recognizing gp100 ([8]; B16-bearing mice, single treatment): promoted the spontaneous expansion | recently activated CD69+ CD44+ CD8+ T cells ([8]; B16-bearing mice, single treatment (anti-Gr1 experiment)): promoted the spontaneous expansion | expansion of recently activated CD69+ CD44+ CD8+ T cells in tumors ([8]; LLC-bearing mice treated with TUDCA): Higher expansion | levels of Arginase I in tumor-MDSC [9]: reduced levels of the inhibitory factor Arginase I | tumor growth ([10]; established B16 tumors, TUDCA 250 mg/kg daily after day 6 vs vehicle): delayed tumor growth

C[S+]([O-])CCCCN=C=S (stereo not drawn) [SFRN, Sulforaphane]
ROS levels and immunoregulatory potential of control MDSC ([2]; LLC-bearing Eif2ak3^Flox mice treated with SFRN): without affecting controls | immunoregulatory potential of tumor Eif2ak3^KO-Lyz2 MDSC ([2]; LLC-bearing mice treated with SFRN, 1:1/4): restored the immunoregulatory potential | anti-tumor effects found in Eif2ak3^KO-Lyz2 mice [4, 17]: disabled the anti-tumor effects | tumor progression in Eif2ak3^Flox mice [4, 17]: delaying tumor progression | potential of Thaps-treated Eif2ak3^KO-Tek BM-MDSC to impair T cell proliferation [7]: partially restored the potential | Ifnβ1 mRNA in tumor-MDSC from Eif2ak3^KO-Lyz2 mice [11]: reduced Ifnβ1 mRNA levels | OCR of tumor-MDSC [12]: elevated OCR | ROS levels in tumor Eif2ak3^KO-Lyz2 MDSC [13]: reduced ROS levels

Cn1cc(-c2ccc3c(c2)CCN3C(=O)Cc2cccc(C(F)(F)F)c2)c2c(N)ncnc21 [GSK-2606414]
immunoinhibitory activity of MDSC ([2]; MDSC from tumors of GSK-2606414 treated B16-bearing mice): lower immunoinhibitory activity of MDSC | frequency of IFNγ-producing CD8+ T cells in tumors ([8]; B16, GSK2606414 25 mg/kg or AMG-44 12 mg/kg, 17 days post-tumor injection): amplified the frequency of IFNγ-producing CD8^+ T cells in tumors | glucose levels in the serum [14]: failed to show alterations in glucose levels | hyperglycemia at high doses ([15]; 150 mg/kg, orally twice a day, previous studies): induced hyperglycemia | limitation for therapeutic use ([15]; Yu et al., 2015): induction of hyperglycemia as a result of pancreatic islet degeneration | tumor growth ([10]; B16-bearing mice, GSK-2606414 25 mg/kg i.p. daily vs vehicle): Delayed tumor growth | tumor growth ([10]; B16, daily i.p. GSK2606414 25 mg/kg or AMG-44 12 mg/kg from day 7): delayed tumor growth

C/C=C(/C)C(=O)O[C@H]1C(C)=C2[C@H]([C@@H]1OC(=O)CCCCCCC)[C@@](C)(OC(C)=O)C[C@H](OC(=O)CCC)[C@@]1(O)[C@H]2OC(=O)[C@@]1(C)O [Thaps, Thapsigargin]
total and phosphorylated IRE1α [1, 18]: upregulation of total and phosphorylated PERK and IRE1α | immunoregulatory potential of tumor-MDSC ([2]; tumor-MDSC from LLC-bearing mice treated with Thaps): elevated the immunoregulatory potential of tumor-MDSC | expansion of splenic-MDSC [4, 19]: increased the expansion of splenic-MDSC | tumor progression [4, 19]: promoted tumor progression | total and phosphorylated PERK [5, 18]: upregulation of total and phosphorylated PERK | ability to block T cell proliferation ([6]; human BM-MDSC, Thaps, last 24 hours): enhanced ability to block T cell proliferation | ability to block T cell proliferation ([7]; murine BM-MDSC, Thaps 200 nM, last 24 hours): enhanced ability to block T cell proliferation

Oc1ccc(C=Cc2cc(O)cc(O)c2)cc1 [Resveratrol]
potential of Thaps-treated Eif2ak3^KO-Tek BM-MDSC to impair T cell proliferation [7]: partially restored the potential

Reference: patent publication US20230107770A1, “METHOD OF ENHANCING IMMUNOTHERAPY USING ER STRESS PATHWAY INHIBITORS” (H. LEE MOFFITT CANCER CENTER AND RESEARCH INSTITUTE, INC., priority 2020, published 2023)
